From article PMC6745270 (Neuropharmacology, 2019)
Structures can show the parent of a compound that is named as a salt.

Columns and labels:
rats [1] = settings: ref You et al., 2017, cited from earlier work
[2] = ref Higley et al., 2011, Maramai et al., 2016, Nathan et al., 2012, Stossel et al., 2017, Thanos et al., 2008, Thomsen et al., You et al.; cited from earlier work
[3] = ref Xi and Gardner, 2007; cited from earlier work
[4] = Phase I metabolic stability in rat liver microsomes; type: in vitro ADME; settings: rat liver microsomes fortified with NADPH, 60 min incubation, 10 μM compound
[5] = Pharmacokinetic study in rats, plasma and brain; type: in vivo; settings: rat, plasma, po, 10 mg/kg
Long-Evans rats [6] = test: Oxycodone self-administration under FR1 reinforcement; type: in vivo, rat
DAT-Cre mice = test: Optical intracranial self-stimulation; type: in vivo, mouse; settings: for effect on oICSS: 5 min prior to testing, vs vehicle
rats [7] = test: Hot plate thermal nociception test; type: in vivo, rat
wild-type C57BL/6J mice = test: Sucrose self-administration; type: in vivo, mouse
rats [8] = test: Open-field locomotor activity; type: in vivo, rat; settings: 10 or 20 mg/kg i.p., vs vehicle
Long-Evans rats [9] = test: Oxycodone self-administration under progressive-ratio; settings: 20 mg/kg i.p., normalized to baseline, vs vehicle
rats [10] = settings: ref Ashby et al., 2003; cited from earlier work

Structure (SMILES): CCc1cc(Cl)c(OC)c(N2CCN(CC(O)CCNC(=O)c3cc4ccccc4[nH]3)CC2)c1 (racemic) [(±)VK4-116]
- effect on oxycodone self-administration (rats [1]; FR1 and PR schedules): dose-dependently inhibited oxycodone self-administration
- effect on oxycodone-triggered reinstatement of drug-seeking (rats [1]): suppressed oxycodone-triggered reinstatement of drug-seeking behavior

Structure (SMILES): Cc1ncoc1-c1nnc(SCCCN2C[C@@H]3C[C@]3(c3ccc(C(F)(F)F)cc3F)C2)n1C [GSK598809]
- effect on food-taking and food-seeking behavior [2]: significantly inhibit food-taking and food-seeking behavior

Structure (SMILES): O=C(NCCCCN1CCN(c2cccc(Cl)c2Cl)CC1)c1ccc2c(c1)Cc1ccccc1-2 [NGB-2904]
- effect on food-taking and food-seeking behavior [2]: significantly inhibit food-taking and food-seeking behavior
- effect on cocaine-induced extracellular nucleus accumbens DA [3]: enhanced cocaine-induced increases in extracellular nucleus accumbens DA

Structure (SMILES): CCc1cccc(N2CCN(C[C@H](O)CCNC(=O)c3cc4ccccc4[nH]3)CC2)c1Cl.Cl [R-VK4-40, (R)-N-(4-(4-(2-Chloro-3-ethylphenyl)piperazin-1-yl)-3-hydroxybutyl)-1H-indole-2-carboxamide HCl]
- % intact remaining [4]: 86±2%
- AUC(0-t) [5]: 1.99 ± 0.28 µM·h
- Cmax [5]: 310 ± 110 nM
- effect on oxycodone self-administration (infusions earned) (Long-Evans rats [6]; FR1, 10 or 20 mg/kg i.p. 30 min before session, oxycodone 0.0031-0.05 mg/kg/infusion): dose-dependent reduction in oxycodone self-administration
- effect on daily oxycodone intake (Long-Evans rats [6]; FR1, 10 or 20 mg/kg i.p. pretreatment): reduced oxycodone intake at the 0.00625 and 0.05 mg/kg doses
- effect on inactive lever responding (Long-Evans rats [6]; FR1 oxycodone self-administration): no effect on inactive lever responding
- effect on oICSS, compound alone (DAT-Cre mice; R-VK4-40 alone i.p. (10, 20 mg/kg as printed elsewhere in the source)): significant reduction in oICSS
- effect of pretreatment on oxycodone-enhanced oICSS (DAT-Cre mice; pretreatment before 1 mg/kg oxycodone): significantly reduced low-dose (1 mg/kg) oxycodone enhancements in oICSS
- effect of pretreatment on %MPE (rats [7]; 20 mg/kg i.p., after 1 mg/kg oxycodone): significant elevation of %MPE
- effect of pretreatment on oxycodone analgesia dose-response curve (rats [7]; 10 or 20 mg/kg i.p. 30 min before oxycodone 0.5-4 mg/kg i.p.): shifted the oxycodone dose-response curve significantly upward
- effect on number of sucrose reinforcers earned (wild-type C57BL/6J mice; 3 mg/kg i.p., vs vehicle): no statistically significant differences
- effect on number of sucrose reinforcers earned (wild-type C57BL/6J mice; 10 mg/kg i.p., vs vehicle and 3 mg/kg): significantly reduced the number of sucrose reinforcers earned
- effect on open-field locomotion (rats [8]): no effect on open-field locomotion
- effect on PR break-point for oxycodone self-administration (Long-Evans rats [9]): significant decrease in break-point

Structure (SMILES): COc1ccc2c3c1O[C@H]1C(=O)CC[C@@]4(O)[C@@H](C2)N(C)CC[C@]314 [oxycodone, Oxycodone HCl, reference compound]
- effect on oICSS (DAT-Cre mice; 1 mg/kg i.p.): significant increase in oICSS
- effect on oICSS (DAT-Cre mice; 3 mg/kg i.p.): significant reduction in oICSS
- time of peak antinociceptive effect (rats [7]; hot plate, after administration): 30 min

Structure (SMILES): N#Cc1ccc2c(c1)CCN(CCC1CCC(NC(=O)c3ccnc4ccccc34)CC1)C2 (stereo not shown) [SB-277011A]
- effect on food-taking and food-seeking behavior [2]: significantly inhibit food-taking and food-seeking behavior
- effect on opioid-induced conditioned place preference (rats [10]): significantly inhibits opioid-induced conditioned place preferences (CPP)

Structure (SMILES): O=C(NC/C=C/CN1CCN(c2cccc(Cl)c2Cl)CC1)c1ccc(-c2ccccn2)cc1 [PG01037]
- effect on food-taking and food-seeking behavior [2]: significantly inhibit food-taking and food-seeking behavior
